Patent US7932290B2, “Method for the treatment of metabolic disorders” (Wellstat Biologics Corporation, priority 2003, dated 2011)

Tests used:
[1] = system: male ob/ob mouse model of Type II diabetes; experiment: Antidiabetic effects in ob/ob mice (serum chemistry after 2 weeks daily oral dosing); type: in vivo
Method: Obese (ob/ob) mice have a defect in the protein leptin, a regulator of appetite and fuel metabolism, leading to hyperphagia, obesity and diabetes.
Male obese (ob/ob homozygote) C57BL/6J mice, approximately 8 weeks of age, were obtained from Jackson Labs (Bar Harbor, Me.) and randomly assigned into groups of 5 animals each such that the body weights (45-50 g) and serum glucose levels (≧300 mg/dl in fed state) were similar between groups. A minimum of 7 days was allowed for adaptation after arrival. All animals were maintained under controlled temperature (23° C.), relative humidity (50±5%) and light (7:00-19:00), and allowed free access to standard chow (Formulab Diet 5020 Quality Lab Products, Elkridge, Md.) and water.
Treatment cohorts were given daily oral doses of vehicle (1% hydroxypropyl-methylcellulose), Compounds BI, CF, CA, CB, CC, or CD for 2 weeks. At the end of the treatment period 100 μl of venous blood was withdrawn in a heparinized capillary tube from the retro-orbital sinus of ob/ob mice for serum chemistry analysis.

[2] = target: T1, Mouse PPARγ LBD fusion protein (Mus musculus, UniProt P37238); experiment: Transcription activation potential, GAL4 luciferase reporter in Hepa1.6 cells; type: cell-based
T1 sequence (P37238 238-503): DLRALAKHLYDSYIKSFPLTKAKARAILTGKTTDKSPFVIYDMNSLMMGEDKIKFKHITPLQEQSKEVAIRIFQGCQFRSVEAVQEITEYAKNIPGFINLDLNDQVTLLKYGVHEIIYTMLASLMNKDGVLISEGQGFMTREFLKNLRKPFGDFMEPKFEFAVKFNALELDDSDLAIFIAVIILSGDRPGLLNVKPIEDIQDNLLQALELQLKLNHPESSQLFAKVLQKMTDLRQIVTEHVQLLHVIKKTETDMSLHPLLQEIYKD
Method: (§1) Cells were seeded in 24 well plates the day prior to transfection at 5×10^4−2×10^5 cells/well, depending upon cell type. Cells were transfected using Lipofectamine 2000 reagent from Invitrogen. A total of 0.8 μg DNA/well was added to 50 μL of Optimem Reduced Serum media (serum free; Gibco). Lipofectamine 2000 was added (2.5 μL/well) to another tube containing 50 μL of Optimem media. Plasmid DNA was added at a ratio of 4:3 (reporter:activator); where appropriate, salmon sperm DNA was substituted for activator expressing plasmid. […] DNA constructs containing the mouse PPARα or PPARγ LBD fused to the GAL4 DNA binding domain were also used. The two solutions were incubated at room temperature for 5 min, and then combined. The combined solution was incubated at room temperature for approximately 30 min. Cells were washed once with PBS, and 100 μL of transfection mix added to each well. Plates were incubated at 37° C. in a 5% CO2 incubator for 4.5 hr, followed by aspiration of the transfection mix, with plates refed using EMEM complete media (supplemented with 10% FBS, 1× Glutamine). 24 hr post-transfection, plates were treated with the appropriate compounds in EMEM complete media, followed by washing once with PBS and addition of 100 μL 1× reporter lysis buffer/well (Promega) 24 hr after treatment. Plates went through one freeze/thaw cycle prior to analysis. Approximately 10 μL of lysate was added to 100 μL of firefly luciferase substrate, mixed by pipetting, and analyzed on a luminometer for 10 s using the integration function (relative luciferase units/RLU) or on a Microbeta Trilux (luciferase counts per second/LCPS). Each treatment was performed in triplicate, and in multiple, separate experiments.

[3] = system: Human PPARγ LBD fusion protein; experiment: Transcription activation potential, GAL4 luciferase reporter in C3A cells; type: cell-based
Method: as §1

[4] = target: T1, Mouse PPARγ LBD fusion protein; experiment: as above; type: cell-based
Method: as §1

[5] = 60 mg/kg, 2 weeks daily oral dosing
[6] = 100 μM test compound, Table 20b
[7] = 200 μM test compound, Table 20b

| transcription activation potential (luciferase) ± standard deviation ([4]; 1 μM test compound, Table 20b) [LCPS] | transcription activation potential (luciferase) ± standard deviation ([4]; 1 μM, Table 21b) [RLU] | transcription activation potential (luciferase) ± standard deviation ([4]; 3 μM test compound, Table 20b) [LCPS] | transcription activation potential (luciferase) ± standard deviation ([4]; 10 μM test compound, Table 20b) [LCPS] | transcription activation potential (luciferase) ± standard deviation ([4]; 10 μM, Table 21b) [RLU] | transcription activation potential (luciferase) ± standard deviation ([4]; 30 μM test compound, Table 20b) [LCPS] | transcription activation potential (luciferase) ± standard deviation ([4]; 30 μM, Table 21b) [RLU] | transcription activation potential (luciferase) ± standard deviation [4, 6] [LCPS] | transcription activation potential (luciferase) ± standard deviation ([4]; 100 μM, Table 21b) [RLU] | transcription activation potential (luciferase) ± standard deviation [4, 7] [LCPS] | SMILES | transcription activation potential (luciferase) ± standard deviation ([3]; 1 μM test compound) [LCPS] | transcription activation potential (luciferase) ± standard deviation ([3]; 3 μM test compound) [LCPS] | transcription activation potential (luciferase) ± standard deviation ([3]; 10 μM test compound) [LCPS] | transcription activation potential (luciferase) ± standard deviation ([3]; 30 μM test compound) [LCPS] | transcription activation potential (luciferase) ± standard deviation ([3]; 100 μM test compound) [LCPS] | transcription activation potential (luciferase) ± standard deviation ([3]; 200 μM test compound) [LCPS] | other results |
| --- | --- | --- | --- | --- | --- | --- | --- | --- | --- | --- | --- | --- | --- | --- | --- | --- | --- |
| 0.33 ± 0.21 | 146 ± 119 | 10.6 ± 8.74 | 17.2 ± 21 | 207 ± 107 | 88.2 ± 33.2 | 818 ± 1201 | 45.8 ± 36.9 | 237 ± 216 | 93.6 ± 29.7 | Cc1cccc(C)c1COc1cccc(CC(=O)O)c1 [Compound CF, 3-(2,6-Dimethylbenzyloxy)phenylacetic acid] | 6.2 ± 0.6 | 49.4 ± 7.8 | 141.5 ± 25.9 | 230.4 ± 97.2 | 225.2 ± 57.5 | 280.1 ± 89.7 | Glucose ([1]; 60 mg/kg daily oral, 2 weeks): 161.2 ± 14.0 mg/dL; Glucose (% of Control) ([1]; 60 mg/kg daily oral, 2 weeks): 38.0 ± 3.0 % of Control; reduction in blood glucose (in words) [1, 5]: significant reduction; reduction in free fatty acids (in words) [1, 5]: significant reduction; reduction in triglycerides (in words) [1, 5]: significant reduction; transcription activation potential (luciferase) ± standard deviation ([2]; 1 μM): 361 ± 138 RLU; transcription activation potential (luciferase) ± standard deviation ([2]; 3 μM): 602 ± 144 RLU; transcription activation potential (luciferase) ± standard deviation ([2]; 5 μM): 710 ± 87 RLU; transcription activation potential (luciferase) ± standard deviation ([2]; 7 μM): 786 ± 418 RLU; transcription activation potential (luciferase) ± standard deviation ([2]; 10 μM): 1140 ± 111 RLU; transcription activation potential (luciferase) ± standard deviation ([2]; 30 μM): 1253 ± 554 RLU; transcription activation potential (luciferase) ± standard deviation ([2]; 100 μM): 1534 ± 608 RLU; transcription activation potential (luciferase) ± standard deviation ([4]; 3 μM, Table 21b): 579 ± 557 RLU; transcription activation potential (luciferase) ± standard deviation ([4]; 5 μM, Table 21b): 476 ± 527 RLU; transcription activation potential (luciferase) ± standard deviation ([4]; 7 μM, Table 21b): 834 ± 984 RLU |
| 8.47 ± 5.01 | 634 ± 195 | 14.8 ± 4.3 | 20.87 ± 4.1 | 405 ± 318 | 55.4 ± 30.6 | 1562 ± 354 | 78.8 ± 23.1 | 2555 ± 1609 | 101.2 ± 59.1 | Cc1cccc(C)c1COc1cccc(C(=O)O)c1 [Compound CG, 3-(2,6-Dimethylbenzyloxy)benzoic acid] | 47.9 ± 7.2 | 73.6 ± 39.1 | 72.5 ± 28.2 | 205.6 ± 37.1 | 403.6 ± 86.1 | 598.1 ± 190.4 | – |
